{"source": "patent US8114862B2", "about": "“TGR5 modulators and methods of use thereof” (Intercept Pharmaceuticals, Inc., priority 2008, dated 2012)", "key": {"[1]": {"experiment": "Bile flow in bile fistula rat after femoral infusion (Example 22)", "format": "in vivo"}, "in vitro": {"experiment": "in vitro", "conditions": "human, s9"}, "CAR": {"biological_target": "T1, CAR (Homo sapiens, UniProt Q14994)", "T1 construct": "purchased Invitrogen", "T1 sequence (Q14994 109-352 limits assumed)": "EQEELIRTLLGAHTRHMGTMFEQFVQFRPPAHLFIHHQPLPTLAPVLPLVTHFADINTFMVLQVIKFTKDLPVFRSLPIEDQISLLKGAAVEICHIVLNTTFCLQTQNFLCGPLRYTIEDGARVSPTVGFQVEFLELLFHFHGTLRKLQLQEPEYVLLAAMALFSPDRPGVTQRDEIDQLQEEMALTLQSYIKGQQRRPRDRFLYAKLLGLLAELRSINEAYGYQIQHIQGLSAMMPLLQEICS", "experiment": "CAR coactivator recruitment (Lanthascreen)", "format": "biochemical", "conditions": "read-out: CAR Activation EC50", "method": "CAR: Coactivator Recruitment (Lanthascreen)\nLanthascreen assay (Invitrogen) was used for nulear receptor selectivity assay. The kit uses a terbium-labeled anti-GST antibody, a fluorescein-labeled coactivator peptide, and a NR ligand-binding domain that is tagged with glutathione-S-transferase (GST) in a homogenous mix-and-read assay format. […] Following 1 hour incubation in the dark, TR-FRET measurements were made in the Envision. […] The data was analyzed using GraphPad Prism using the sigmoidal curve equation with variable slope to obtain EC50 values."}, "intestinal bacteria": {"test_system": "intestinal bacteria", "experiment": "Metabolic stability in human stool culture (7α-dehydroxylation)", "format": "in vitro ADME", "method": "Homogenized fresh human stools (500 mg) were transferred into sterile vials to which 5 mL of sterilized chopped meat-glucose medium (Scott Lab., Fiskville, R.I.) was added. BA was then added at a final concentration of 0.05 mM. […] The samples were centrifuged at 3500 rpm for 10 min; from the supernatant the BA were isolated by C-18 solid-phase extraction and analyzed by TLC and HPLC-ES-MS/MS.\nThin-layer chromatography (TLC), utilizing silica gel 0.25 mm thickness plates (Merck, Darmstat, Germany), was employed as the first screening test. The solvent system used for the separation of conjugated BA was composed of propionic acid/isoamyl acetate/water/N-propanol (3:4:1:2, v/v/v/v; solvent I), and that of the unconjugated BA was acetic acid/carbon tetrachloride/isopropyl ether/isoamyl acetate/water/N-propanol/benzene (1:4:6:8:2:2, v/v/v/v/v/v; solvent II)."}, "PPARδ": {"biological_target": "T2, PPARδ (Homo sapiens, UniProt Q03181)", "T2 sequence (Q03181 211-439 limits assumed)": "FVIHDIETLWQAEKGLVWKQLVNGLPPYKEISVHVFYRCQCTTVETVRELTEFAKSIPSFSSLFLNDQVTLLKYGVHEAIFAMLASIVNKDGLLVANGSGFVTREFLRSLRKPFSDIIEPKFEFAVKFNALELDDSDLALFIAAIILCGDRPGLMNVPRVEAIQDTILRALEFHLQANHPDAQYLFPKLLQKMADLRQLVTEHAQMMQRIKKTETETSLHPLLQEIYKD", "experiment": "PPARδ coactivator recruitment assay"}, "HF-fed C57BL/6J mice": {"test_system": "HF-fed C57BL/6J mice", "experiment": "Dietary intervention in HF-fed C57BL/6J mice (Example 20)", "format": "in vivo, mouse", "method": "Age-matched male mice were used for all experiments. Genetically engineered mouse models (GEMMs), i.e., TGR5-Tg and TGR5^−/− mice, were generated as described in the Supplemental Data. […] Protoc. Mol. Chapter. […] Protoc. Mol. Biol. Chapter 29, Unit 29A, 22). […] Plasma GLP-1 levels were measured by ELISA (Millipore) on blood collected by retro-orbital puncture."}, "PXR": {"biological_target": "PXR (Homo sapiens, UniProt O75469)", "sequence (O75469 whole entry, species assumed)": "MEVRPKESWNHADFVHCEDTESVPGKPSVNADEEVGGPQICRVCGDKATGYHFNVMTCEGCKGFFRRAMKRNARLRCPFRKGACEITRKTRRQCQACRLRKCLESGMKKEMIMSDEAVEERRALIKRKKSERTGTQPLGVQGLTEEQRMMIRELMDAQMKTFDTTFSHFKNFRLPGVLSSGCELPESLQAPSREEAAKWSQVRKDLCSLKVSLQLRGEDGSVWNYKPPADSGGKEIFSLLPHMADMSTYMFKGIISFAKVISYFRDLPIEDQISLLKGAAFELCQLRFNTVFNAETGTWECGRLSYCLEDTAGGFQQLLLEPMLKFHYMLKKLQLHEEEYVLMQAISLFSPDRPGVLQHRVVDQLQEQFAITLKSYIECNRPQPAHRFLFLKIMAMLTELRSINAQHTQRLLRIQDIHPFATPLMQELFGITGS", "experiment": "PXR ligands competition assay (binding assay)"}, "[2]": {"experiment": "Critical micellar concentration by surface tension", "format": "physicochemical", "conditions": "[…] NaCl water solution", "method": "The critical micellar concentration (CMC) was determined by surface tension (ST) measurements using a maximum bubble-pressure method which give surface tension values […] by potential impurities like static methods are. The tensiometer was a […] Research Corp., Milwaukee, Wis.) equipped with two glass probes of 0.5 and 4.0 mm diameters connected to a source of nitrogen. […] The surface tension values were plotted against the logarithm of the bile salt concentration; the regression lines corresponding to the two parts of the curve (monomeric and micellar phases) were calculated using the method of least squares, and the intersection of the lines was taken as the CMC value. From the ST vs concentration curves the value of the surface tension at the CMC (equilibrium between monomers and multimers species) was also calculated giving information about the detergency power which is related to the size of the micelles with associate surface tension lowering capacity. The CMC was evaluated by surface tension measurements in non equilibrium conditions i.e. in conditions that impurities slightly affect the surface tension results (FIG. 10)."}, "[3]": {"experiment": "Biliary secretion and metabolism in bile fistula rat, id and iv infusion", "conditions": "for Conc. / Secretion: rat bile; for fraction unbound at 4 h: rat, in vivo, 1 μmol/kg/min"}, "[4]": {"conditions": "duodenal infusion 75-135 min, time 90 min"}, "[5]": {"conditions": "duodenal infusion 75-135 min, time 120 min"}, "[6]": {"conditions": "duodenal infusion 75-135 min, time 150 min"}, "[7]": {"conditions": "duodenal infusion 75-135 min, time 180 min"}, "[8]": {"conditions": "duodenal infusion 75-135 min, time 210 min"}, "[9]": {"conditions": "duodenal infusion 75-135 min, time 240 min"}, "[10]": {"conditions": "duodenal infusion 75-135 min, time 270 min"}, "[11]": {"conditions": "duodenal infusion 75-135 min, time 300 min"}, "[12]": {"conditions": "femoral infusion 75-135 min, time 90 min"}, "[13]": {"conditions": "femoral infusion 75-135 min, time 120 min"}, "[14]": {"conditions": "femoral infusion 75-135 min, time 150 min"}, "[15]": {"conditions": "femoral infusion 75-135 min, time 180 min"}, "[16]": {"conditions": "femoral infusion 75-135 min, time 210 min"}, "[17]": {"conditions": "femoral infusion 75-135 min, time 240 min"}, "[18]": {"conditions": "femoral infusion 75-135 min, time 270 min"}}, "data": [{"smiles": "CC[C@H]1[C@@H](O)[C@@H]2[C@H](C[C@H](O)[C@]3(C)[C@@H]([C@H](C)C[C@H](C)C(=O)O)CC[C@@H]23)[C@@]2(C)CC[C@@H](O)C[C@@H]12", "note": "[Ih3e, 6α-ethyl-(23S)-methyl-3α,7α,12α trihydroxy-5β-cholan-24-oic acid]", "values": [{"measurement": "duration of increased bile flow after the end of the infusion period", "setting": "[1]; iv infusion", "value": "at least 2 hours"}, {"measurement": "bile flow rate", "setting": "[1]; iv infusion 1 μmol/min/kg for 1 h", "value": "significantly increased the bile flow rate"}, {"measurement": "half-life", "setting": "in vitro", "value": 12.1, "unit": "h"}, {"measurement": "EC50", "setting": "CAR", "value": "> 250", "unit": "µM"}, {"measurement": "7-dehydroxylation and intermediate formation of a 7-oxo derivative", "setting": "intestinal bacteria", "value": "practically abolished"}, {"measurement": "side chain stability to intestinal bacteria enzymatic activities", "setting": "intestinal bacteria", "value": "not modified"}, {"measurement": "compound recovered unmodified", "setting": "intestinal bacteria; after 24 hour incubation", "value": "more than 85%"}, {"measurement": "compound unmodified", "setting": "intestinal bacteria; human, 12 h, 0.05 mM", "value": "more than 95%"}, {"measurement": "PPARδ Activation EC50", "setting": "PPARδ", "value": "No activity"}, {"measurement": "expression level of classical target genes of FXR in the liver (CYP7A1, BSEP)", "setting": "HF-fed C57BL/6J mice; 30 mg/kg/day", "value": "complete absence of changes"}, {"measurement": "plasma levels", "setting": "HF-fed C57BL/6J mice; 30 mg/kg/day admixed with diet", "value": "within the range of those of CA and 3-muricholic acid"}, {"measurement": "increase in liver and fat pad mass", "setting": "HF-fed C57BL/6J mice; HF-fed", "value": "attenuated"}, {"measurement": "plasma triglycerides and nonesterified fatty acids (NEFAs)", "setting": "HF-fed C57BL/6J mice; HF-fed mice", "value": "significant drop"}, {"measurement": "fat mass", "setting": "HF-fed C57BL/6J mice; HF-fed, relative to HF-fed controls", "value": "sharp reduction in fat mass"}, {"measurement": "liver fibrosis", "setting": "HF-fed C57BL/6J mice; Sirius red staining", "value": "absence of liver fibrosis"}, {"measurement": "attenuation of body weight gain", "setting": "HF-fed C57BL/6J mice; after 10 weeks of treatment, relative to HF-fed controls", "value": "about 15%"}, {"measurement": "plasma levels of liver enzymes", "setting": "HF-fed C57BL/6J mice; compared to HF-fed controls", "value": "markedly reduced"}, {"measurement": "respiratory quotient", "setting": "HF-fed C57BL/6J mice; dark period", "value": "significantly reduced"}, {"measurement": "energy expenditure (O2 consumption and CO2 production)", "setting": "HF-fed C57BL/6J mice; indirect calorimetry", "value": "enhanced energy expenditure"}, {"measurement": "gene expression profiling of BAT", "setting": "HF-fed C57BL/6J mice; mouse, in vivo", "value": "increase of several mitochondrial genes involved in energy expenditure"}, {"measurement": "liver steatosis", "setting": "HF-fed C57BL/6J mice; oil red O staining, liver lipid content", "value": "reduction in liver steatosis"}, {"measurement": "IC50", "setting": "PXR", "value": 110, "unit": "µM"}, {"measurement": "CMC […] Na+", "setting": "[2]", "value": 1.4, "unit": "mM"}, {"measurement": "STCMC (surface tension at CMC)", "setting": "[2]", "value": 50.1, "unit": "Dyne/cm"}, {"measurement": "compound secreted into the bile in its unconjugated form", "setting": "[3]; after intravenous or intraduodenal infusion", "value": "more than 90%"}, {"measurement": "biliary secretion", "setting": "[3]; after iv administration", "value": "efficient"}, {"measurement": "recovery in bile after id administration", "setting": "[3]; id vs iv", "value": "slightly lower than the recovery after iv administration"}, {"measurement": "Conc.", "setting": "[3]; [4]", "value": 7, "unit": "µM"}, {"measurement": "Secretion", "setting": "[3]; [4]", "value": 0.0003, "unit": "µmol/kg/min"}, {"measurement": "Conc.", "setting": "[3]; [5]", "value": 690, "unit": "µM"}, {"measurement": "Secretion", "setting": "[3]; [5]", "value": 0.057, "unit": "µmol/kg/min"}, {"measurement": "Conc.", "setting": "[3]; [6]", "value": 1880, "unit": "µM"}, {"measurement": "Secretion", "setting": "[3]; [6]", "value": 0.167, "unit": "µmol/kg/min"}, {"measurement": "Conc.", "setting": "[3]; [7]", "value": 1290, "unit": "µM"}, {"measurement": "Secretion", "setting": "[3]; [7]", "value": 0.150, "unit": "µmol/kg/min"}, {"measurement": "Conc.", "setting": "[3]; [8]", "value": 790, "unit": "µM"}, {"measurement": "Secretion", "setting": "[3]; [8]", "value": 0.077, "unit": "µmol/kg/min"}, {"measurement": "Conc.", "setting": "[3]; [9]", "value": 390, "unit": "µM"}, {"measurement": "Secretion", "setting": "[3]; [9]", "value": 0.033, "unit": "µmol/kg/min"}, {"measurement": "Conc.", "setting": "[3]; [10]", "value": 270, "unit": "µM"}, {"measurement": "Secretion", "setting": "[3]; [10]", "value": 0.026, "unit": "µmol/kg/min"}, {"measurement": "Conc.", "setting": "[3]; [11]", "value": 200, "unit": "µM"}, {"measurement": "Secretion", "setting": "[3]; [11]", "value": 0.015, "unit": "µmol/kg/min"}, {"measurement": "Conc.", "setting": "[3]; [12]", "value": 1900, "unit": "µM"}, {"measurement": "Secretion", "setting": "[3]; [12]", "value": 0.1, "unit": "µmol/kg/min"}, {"measurement": "Conc.", "setting": "[3]; [13]", "value": 3100, "unit": "µM"}, {"measurement": "Secretion", "setting": "[3]; [13]", "value": 0.23, "unit": "µmol/kg/min"}, {"measurement": "Conc.", "setting": "[3]; [14]", "value": 3400, "unit": "µM"}, {"measurement": "Secretion", "setting": "[3]; [14]", "value": 0.31, "unit": "µmol/kg/min"}, {"measurement": "Conc.", "setting": "[3]; [15]", "value": 2300, "unit": "µM"}, {"measurement": "Secretion", "setting": "[3]; [15]", "value": 0.2, "unit": "µmol/kg/min"}, {"measurement": "Conc.", "setting": "[3]; [16]", "value": 1060, "unit": "µM"}, {"measurement": "Secretion", "setting": "[3]; [16]", "value": 0.105, "unit": "µmol/kg/min"}, {"measurement": "Conc.", "setting": "[3]; [17]", "value": 550, "unit": "µM"}, {"measurement": "Secretion", "setting": "[3]; [17]", "value": 0.049, "unit": "µmol/kg/min"}, {"measurement": "Conc.", "setting": "[3]; [18]", "value": 270, "unit": "µM"}, {"measurement": "Secretion", "setting": "[3]; [18]", "value": 0.018, "unit": "µmol/kg/min"}, {"measurement": "fraction unbound at 4 h", "setting": "[3]", "value": "0.94 ± 0.06"}, {"measurement": "fraction unbound at 4 h", "setting": "[3]; iv", "value": 0.93}]}]}
